From patent publication US9566312B2, “Cyclic peptides and use as medicines” (priority 2012, dated 2017) come the findings set out here.

The term IC50 denotes the concentration that inhibits the measured activity by half.

One assay addresses cyclophilin A (CypA) (Homo sapiens (Human), UniProt P62937). Put plainly: Inhibitor binding to cyclophilin proteins by SPR, CypA.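 Note: Single-cycle kinetics on a Biacore T200, compound injected at several concentrations for 1 min each at 50 µL/min, then 10 min dissociation, in HEPES pH 7.4 buffer with 3% DMSO.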 Also on record: unit not given here. The following applies: 1:1 binding model. A general note: Surface plasmon resonance follows binding to a sensor surface in real time, without labels.
Assay [1] concerns peripheral blood mononuclear cells (PBMC). As to the kind of experiment: Anti-proliferative or immunosuppressive activity, BrdU incorporation in PHA-stimulated PBMC. Format: cell-based. The following applies: PHA 3 μg/ml, 60 hour compound treatment; read-out: EMV PBMC IC50. The procedure, abridged:
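Fresh PBMCs from two donors, 30,000 per well in X-VIVO 15 medium, stimulated with 3 μg/ml PHA to drive T-cell proliferation. Proliferation measured as BrdU incorporation into DNA by BrdU ELISA.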

Another assay concerns the target CypF (Homo sapiens (Human), UniProt P30405). As to the kind of experiment: Inhibitor binding to cyclophilin proteins by SPR, CypF. The following applies: 1:1 binding model. The procedure, abridged: (§1)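 Running buffer: 10 mM HEPES pH 7.4, 150 mM NaCl, 0.05% P20, 3% DMSO, with compound present. Capture of avi-tagged mono-biotinylated cyclophilin; single-cycle series, 1 min contact, 10 min dissociation. Rates and affinity fitted to a 1:1 interaction model.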

A further assay concerns the target cyclophilin B (CypB) (Homo sapiens (Human), UniProt P23284). Put plainly: Inhibitor binding to cyclophilin proteins by SPR, CypB. Also on record: unit not given here. The following applies: 1:1 binding model. The essentials: as §1
The target in assay [2] is organic anion transporting polypeptide 1B1 (OATP1B1) (Homo sapiens (Human), UniProt Q9Y6L6). Put plainly: OATP assay in CHO-OATP1B1 cells.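 Note: inhibition of probe substrate uptake into the cells, ten minutes exposure, accumulated substrate read by fluorescence once cells were lysed.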
For assay [3], the system named is genotype 1b subgenomic HCV replicon in Huh7.5 cells. Format: cell-based, hepatitis C virus. The following applies: read-out: RPLN-1b IC50. The procedure, abridged:
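Huh7.5 cells carrying genotype 1b subgenomic HCV replicon with renilla luciferase-neomycin reporter, in phenol red-free DMEM without G418. Luciferase measured after 72 h compound exposure relative to DMSO-treated cells; cytotoxicity (CC50) by Cell Titer-Glo.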

[4] abbreviates: genotype 1b replicon, 72 h incubation.

Structures are written as SMILES. Read-outs that look alike come from different tables or passages of the source. Starred links: 1 amine or outer side, 2 acyl side, 3 side chain; linkers in the order of their positions; H or OH if unused. Non-standard residues stand in square brackets, D forms with d. Residues, ends and D or L forms follow the SMILES beside them. X27 = C[C@H](COCC(=O)N1CCN(C2CCOCC2)CC1)[C@@H](C(=O)[*:2])N(C)[*:1]; X75 = C[C@H](CCC(C)(C)OC(=O)N1CCN(C)CC1)[C@@H](C(=O)[*:2])N(C)[*:1]; X37 = C[C@H](CN1CCC(S(C)(=O)=O)CC1)[C@@H](C(=O)[*:2])N(C)[*:1]; X70 = C[C@H](CCCOC(=O)N1CCN(C)CC1)[C@@H](C(=O)[*:2])N(C)[*:1]; X38 = C[C@@H](CN1CCN2C(=O)OCC2C1)[C@@H](C(=O)[*:2])N(C)[*:1]; X62 = COCCN1CCN(CCC[C@@H](C)[C@@H](C(=O)[*:2])N(C)[*:1])CC1; X34 = C[C@H](COC(=O)N1CCOCC1)[C@@H](C(=O)[*:2])N(C)[*:1]; X46 = C[C@H](CN1CC2CCC(C1)O2)[C@@H](C(=O)[*:2])N(C)[*:1]; MeBmt = C/C=C/C[C@@H](C)[C@@H](O)[C@H](NC)C(=O)O; NMeL = CN[C@@H](CC(C)C)C(=O)O; NMeV = CN[C@H](C(=O)O)C(C)C; dNMeA = CN[C@H](C)C(=O)O; Abu = CC[C@H](N)C(=O)O

organic anion transporting polypeptide 1B1 (OATP1B1), sequence (Q9Y6L6 whole entry): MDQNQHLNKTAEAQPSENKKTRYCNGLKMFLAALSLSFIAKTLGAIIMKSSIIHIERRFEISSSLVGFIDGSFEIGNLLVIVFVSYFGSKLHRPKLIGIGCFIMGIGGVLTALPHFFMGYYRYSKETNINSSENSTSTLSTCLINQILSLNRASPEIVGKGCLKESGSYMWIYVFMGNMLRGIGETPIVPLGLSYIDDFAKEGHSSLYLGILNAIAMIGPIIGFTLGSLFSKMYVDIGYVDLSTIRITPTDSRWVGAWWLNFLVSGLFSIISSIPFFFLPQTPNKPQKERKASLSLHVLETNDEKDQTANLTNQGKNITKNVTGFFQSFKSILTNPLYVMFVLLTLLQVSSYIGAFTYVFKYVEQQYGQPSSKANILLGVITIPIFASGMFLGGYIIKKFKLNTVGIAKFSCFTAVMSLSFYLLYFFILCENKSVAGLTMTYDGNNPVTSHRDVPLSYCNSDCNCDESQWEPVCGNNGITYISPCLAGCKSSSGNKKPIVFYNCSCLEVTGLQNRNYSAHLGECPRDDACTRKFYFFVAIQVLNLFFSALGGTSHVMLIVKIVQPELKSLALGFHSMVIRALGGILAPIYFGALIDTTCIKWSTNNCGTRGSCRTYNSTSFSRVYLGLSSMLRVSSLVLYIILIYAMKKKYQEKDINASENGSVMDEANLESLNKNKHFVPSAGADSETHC
cyclophilin B (CypB), sequence (P23284 34-216): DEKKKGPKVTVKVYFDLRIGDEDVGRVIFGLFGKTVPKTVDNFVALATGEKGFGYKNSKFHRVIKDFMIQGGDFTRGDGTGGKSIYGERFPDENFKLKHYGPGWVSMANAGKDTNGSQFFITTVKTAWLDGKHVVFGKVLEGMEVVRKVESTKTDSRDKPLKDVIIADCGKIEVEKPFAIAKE
CypF, sequence (P30405 30-207): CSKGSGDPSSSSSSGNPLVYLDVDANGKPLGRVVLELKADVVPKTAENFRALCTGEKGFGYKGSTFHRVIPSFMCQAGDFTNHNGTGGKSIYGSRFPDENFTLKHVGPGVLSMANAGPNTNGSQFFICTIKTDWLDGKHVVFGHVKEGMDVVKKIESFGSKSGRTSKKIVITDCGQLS
cyclophilin A (CypA), sequence (P62937 whole entry): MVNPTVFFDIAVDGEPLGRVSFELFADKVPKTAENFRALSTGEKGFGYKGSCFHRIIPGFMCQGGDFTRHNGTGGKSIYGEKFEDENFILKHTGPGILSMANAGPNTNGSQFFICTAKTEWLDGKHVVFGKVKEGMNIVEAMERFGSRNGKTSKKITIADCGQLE
Description for cyclophilin A (CypA): Binding of inhibitors to expressed cyclophilins was determined using surface plasmon resonance (SPR) experiments. Briefly, avi-tagged cyclophilin proteins with mono-biotinylation were immobilized onto a Biotin CAPture chip (GE Healthcare, cat. #28920234). SPR experiments were carried out on an upgraded Biacore T200 system using a running buffer containing the inhibitor, 10 mM HEPES, pH 7.4, 150 mM NaCl, 0.05% P20, and 3% DMSO. Single-cycle kinetics measurements were used to study the interactions between cyclophilin inhibitors and different cyclophlins. Accordingly, compound at various concentrations was injected to the flow cells with a contact time of 1 min each at a flow rate of 50 μL/min. The final dissociation phase lasts for 10 min following the sample injection. Data was analyzed using Biacore T200 Evaluation Software Version 1.0 and a 1:1 binding model was applied to fit the data to obtain kon, koff, and KD.

As for `C/C=C/C[C@@H](C)[C@@H](O)[C@H]1C(=O)N[C@@H](CC)C(=O)N(C)[C@H](C)C(=O)N(C)[C@@H]([C@H](C)CCCOC(=O)N2CCN(C)CC2)C(=O)N[C@@H](C(C)C)C(=O)N(C)[C@@H](CC(C)C)C(=O)N[C@@H](C)C(=O)N[C@H](C)C(=O)N(C)[C@@H](CC(C)C)C(=O)N(C)[C@@H](CC(C)C)C(=O)N(C)[C@@H](C(C)C)C(=O)N1C` [Compound 2.19.7, 3-[D-Ala]-4-[(2S,3R)-3-methyl-2-(methylamino)-6-((4-methylpiperazine-1-carbonyl)oxy)hexanoyl]-cyclosporin] (cyclo(A[dA][NMeL][NMeL][NMeV][MeBmt][Abu][dNMeA][X70]V[NMeL])), the “CypA Kd” value at cyclophilin A (CypA) is reported as 1.1. Besides, the values for the IC50 in assay [1], in assay [2] and in assay [3] (setting [4]) were 15.9 µM, 2.9 µM and 0.011 µM, respectively. On CypF, this compound gave a CypF Kd of 0.0007 µM. In addition, the “CypB Kd” value on cyclophilin B (CypB) is 0.7.
Regarding `C/C=C/C[C@@H](C)[C@@H](O)[C@H]1C(=O)N[C@@H](CC)C(=O)N(C)[C@H](C)C(=O)N(C)[C@@H]([C@H](C)CN2CC3CCC(C2)O3)C(=O)N[C@@H](C(C)C)C(=O)N(C)[C@@H](CC(C)C)C(=O)N[C@@H](C)C(=O)N[C@H](C)C(=O)N(C)[C@@H](CC(C)C)C(=O)N(C)[C@@H](CC(C)C)C(=O)N(C)[C@@H](C(C)C)C(=O)N1C` [Compound 2.5.3, 3-[D-Ala]-4-[(2S,3R)-4-(8-oxa-3-azabicyclo[3.2.1]octan-3-yl)-3-methyl-2-(methylamino)butanoyl]-cyclosporin] (cyclo([MeBmt][Abu][dNMeA][X46]V[NMeL]A[dA][NMeL][NMeL][NMeV])), the “CypA Kd” value on cyclophilin A (CypA) was found to be 2.4. Also, the IC50 in assay [1] came out at 5.8 µM; in assay [2] it was 1.7 µM; in assay [3] it was 0.042 µM. Moreover, at CypF, the CypF Kd is 0.0014 µM. For the same compound, the “CypB Kd” value at cyclophilin B (CypB) is given as 1.8.
In the case of `C/C=C/C[C@@H](C)[C@@H](O)[C@H]1C(=O)N[C@@H](CC)C(=O)N(C)[C@H](C)C(=O)N(C)[C@@H]([C@H](C)COCC(=O)N2CCN(C3CCOCC3)CC2)C(=O)N[C@@H](C(C)C)C(=O)N(C)[C@@H](CC(C)C)C(=O)N[C@@H](C)C(=O)N[C@H](C)C(=O)N(C)[C@@H](CC(C)C)C(=O)N(C)[C@@H](CC(C)C)C(=O)N(C)[C@@H](C(C)C)C(=O)N1C` [Compound 2.6.2, 3-[D-Ala]-4-[(2S,3S)-4-(2-(4-cyclohexylpiperazin-1-yl)-2-oxoethoxy)-3-methyl-2-(methylamino)butanoyl]-cyclosporin] (cyclo([MeBmt][Abu][dNMeA][X27]V[NMeL]A[dA][NMeL][NMeL][NMeV])), the “CypA Kd” value on cyclophilin A (CypA) is 1.3. In addition, the IC50 in assay [1] came out at 17.3 µM; in assay [2], 3.5 µM; in assay [3] it was 0.14 µM. The compound also yielded a CypF Kd at CypF of 0.0006 µM. The “CypB Kd” value at cyclophilin B (CypB) stood at 0.7.
As for `C/C=C/C[C@@H](C)[C@@H](O)[C@H]1C(=O)N[C@@H](CC)C(=O)N(C)[C@H](C)C(=O)N(C)[C@@H]([C@@H](C)CN2CCN3C(=O)OCC3C2)C(=O)N[C@@H](C(C)C)C(=O)N(C)[C@@H](CC(C)C)C(=O)N[C@@H](C)C(=O)N[C@H](C)C(=O)N(C)[C@@H](CC(C)C)C(=O)N(C)[C@@H](CC(C)C)C(=O)N(C)[C@@H](C(C)C)C(=O)N1C` (stereo partly drawn) [Compound 2.17.10, 3-[D-Ala]-4-[(2S,3S)-3-methyl-2-(methylamino)-4-((S)-3-oxotetrahydro-1H-oxazolo[3,4-a]pyrazin-7(3H)-yl)butanoyl]-cyclosporin] (cyclo(A[dA][NMeL][NMeL][NMeV][MeBmt][Abu][dNMeA][X38]V[NMeL])), the “CypA Kd” value at cyclophilin A (CypA) is listed as 0.6. For the same compound, the IC50 in assay [1] came out at 15 µM; in assay [2], 1.4 µM; in assay [3] (setting [4]), 0.031 µM. On CypF, this compound showed a CypF Kd of 0.0004 µM. Further, the “CypB Kd” value at cyclophilin B (CypB) worked out at 0.5.
For the compound `C/C=C/C[C@@H](C)[C@@H](O)[C@H]1C(=O)N[C@@H](CC)C(=O)N(C)[C@H](C)C(=O)N(C)[C@@H]([C@H](C)CCC(C)(C)OC(=O)N2CCN(C)CC2)C(=O)N[C@@H](C(C)C)C(=O)N(C)[C@@H](CC(C)C)C(=O)N[C@@H](C)C(=O)N[C@H](C)C(=O)N(C)[C@@H](CC(C)C)C(=O)N(C)[C@@H](CC(C)C)C(=O)N(C)[C@@H](C(C)C)C(=O)N1C` [Compound 2.12.2, 3-[D-Ala]-4-[(2S,3R)-3,6-dimethyl-2-(methylamino)-6-((4-methylpiperazine-1-carbonyl)oxy)heptanoyl]-cyclosporin] (cyclo(A[dA][NMeL][NMeL][NMeV][MeBmt][Abu][dNMeA][X75]V[NMeL])), the “CypA Kd” value at cyclophilin A (CypA) turned out to be 22. The half-inhibitory concentration (IC50) was 11.6 µM in assay [1], 4.7 µM in assay [2] and 0.18 µM in assay [3] (setting [4]). In addition, on CypF, the CypF Kd was 0.01 µM. Besides, the “CypB Kd” value at cyclophilin B (CypB) came out at 6.8.
Regarding `C/C=C/C[C@@H](C)[C@@H](O)[C@H]1C(=O)N[C@@H](CC)C(=O)N(C)[C@H](C)C(=O)N(C)[C@@H]([C@H](C)COC(=O)N2CCOCC2)C(=O)N[C@@H](C(C)C)C(=O)N(C)[C@@H](CC(C)C)C(=O)N[C@@H](C)C(=O)N[C@H](C)C(=O)N(C)[C@@H](CC(C)C)C(=O)N(C)[C@@H](CC(C)C)C(=O)N(C)[C@@H](C(C)C)C(=O)N1C` [Compound 2.5.7, 3-[D-Ala]-4-[(2S,3S)-3-methyl-2-(methylamino)-4-((morpholine-4-carbonyl)oxy)butanoyl]-cyclosporin] (cyclo([MeBmt][Abu][dNMeA][X34]V[NMeL]A[dA][NMeL][NMeL][NMeV])), the “CypA Kd” value on cyclophilin A (CypA) was determined as 2.1. Besides, the IC50 turned out to be 19.3 µM in assay [1], 2.3 µM in assay [2] and 0.048 µM in assay [3]. This compound had a CypF Kd on CypF of 0.0015 µM. The “CypB Kd” value at cyclophilin B (CypB) was 1.3.
For the compound `C/C=C/C[C@@H](C)[C@@H](O)[C@H]1C(=O)N[C@@H](CC)C(=O)N(C)[C@H](C)C(=O)N(C)[C@@H]([C@H](C)CCCN2CCN(CCOC)CC2)C(=O)N[C@@H](C(C)C)C(=O)N(C)[C@@H](CC(C)C)C(=O)N[C@@H](C)C(=O)N[C@H](C)C(=O)N(C)[C@@H](CC(C)C)C(=O)N(C)[C@@H](CC(C)C)C(=O)N(C)[C@@H](C(C)C)C(=O)N1C` [Compound 2.19.6, 3-[D-Ala]-4-[(2S,3R)-6-(4-(2-methoxyethyl)piperazin-1-yl)-3-methyl-2-(methylamino)hexanoyl]-cyclosporin] (cyclo(A[dA][NMeL][NMeL][NMeV][MeBmt][Abu][dNMeA][X62]V[NMeL])), the “CypA Kd” value on cyclophilin A (CypA) is listed as 0.7. Besides, the IC50 in assay [1] was 1.6 µM; in assay [2] it was 2.2 µM; in assay [3] (setting [4]), 0.11 µM. The compound also registered a CypF Kd on CypF of 0.0005 µM. The “CypB Kd” value on cyclophilin B (CypB) stood at 0.7.
`C/C=C/C[C@@H](C)[C@@H](O)[C@H]1C(=O)N[C@@H](CC)C(=O)N(C)[C@H](C)C(=O)N(C)[C@@H]([C@H](C)CN2CCC(S(C)(=O)=O)CC2)C(=O)N[C@@H](C(C)C)C(=O)N(C)[C@@H](CC(C)C)C(=O)N[C@@H](C)C(=O)N[C@H](C)C(=O)N(C)[C@@H](CC(C)C)C(=O)N(C)[C@@H](CC(C)C)C(=O)N(C)[C@@H](C(C)C)C(=O)N1C` [Compound 2.5.20, 3-[D-Ala]-4-[(2S,3R)-3-methyl-2-(methylamino)-4-(4-(methylsulfonyl)piperidin-1-yl)butanoyl]-cyclosporin] (cyclo(A[dA][NMeL][NMeL][NMeV][MeBmt][Abu][dNMeA][X37]V[NMeL])): the “CypA Kd” value on cyclophilin A (CypA) turned out to be 3.7. Further, the IC50 in assay [1] was 29.2 µM; in assay [2] it was 1.8 µM; in assay [3] (setting [4]) it was 0.109 µM. Moreover, the CypF Kd on CypF stood at 0.0016 µM. Besides, the “CypB Kd” value on cyclophilin B (CypB) amounted to 1.2.
